Assay results: US9603866B2, “Anti-fatigue composition, formulation and use thereof” (priority 2010, dated 2017)
Marks after values point to notes of the source that are not given here.

How the values were obtained:
[1] = system: ICR mice; experiment: Mice burden swimming test; assay type: in vivo; details: for Swimming time / Change rate of swimming time: gavage once a day, 30 days; for Swimming time: 6% body weight load; for Change rate of swimming time: vs normal control
Experimental: According to the Technical Standards for Testing & Assessment of Health Food issued by the Ministry of Health, P. R. China, function and biochemistry indexes assessment of the mixture of 20(S)-protopanoxadiol and lycium barbarum polysaccharide on the function of relieving physical fatigue is conducted; the detailed method is given as follows:
(§1) 1. Experimental animals: ICR mice, male, 18-22 g, provided by Shanghai Slack laboratory animal Co. Ltd., license number: SCXK (Shanghai) 2007-0005;
20(S)-protopanoxadiol: provide by Shanghai Innovative Research Center of Traditional Chinese Medicine, batch number: 20050606-1, purity: 94%; lycium barbarum polysaccharide: provided by Shanghai KangZhou Fungi Extract Co. Ltd., polysaccharide content≧30%.
To 20(S)-protopanoxadiol is added a small amount of 0.3% CMC-Na, followed by grinding to form a suspension and diluting with CMC-Na to a desired concentration. Then lycium barbarum polysaccharide is added to the 20(S)-protopanoxadiol suspension to form a composition with a certain concentration.
(§2) 3. Experimental groups: the mice are randomly divided into 19 groups by weight, 20 mice per each group; the detailed groups are as follows:
(§3) 0.2 ml/10 g of drug is administrated by gavage every day; for normal control group, 0.2 ml/10 g of distilled water is administrated by gavage every day; once a day, 30 days in total.
30 minutes after the last time of administrating drug, the end of the tail of each mouse is loaded with copper wires corresponding to 6% of its body weight, then the mouse is put in a swimming box to swim, the time from start of swimming to death of the mouse is recorded, i.e. the mice burden swimming time; the water depth in the swimming box is 30 cm or more, and water temperature is 23+1.0° C.
5. Statistical data processing: t-test is conducted to calculate P value, Jin Zhengjun formula is used to conduct combined medication analysis.
Other than the combined dosage of Experimental example 1, the range of combined dosage is enlarged to conduct multi-batch experiments. The experimental animals, drugs and method are the same as those of Experimental example 1, and the final results are shown in Table 2: […]

[2] = Animal weight during the 30-day gavage of the burden swimming study; assay type: in vivo, mice; details: gavage once a day, 30 days
Experimental: as §1, §2, §3

## CC(C)=CCC[C@](C)(O)[C@H]1CC[C@]2(C)[C@@H]1[C@H](O)C[C@@H]1[C@@]3(C)CC[C@H](O)C(C)(C)[C@@H]3CC[C@]12C [20(S)-protopanoxadiol]
[1]; 0.01 mg/kg
  Swimming time: 640 ± 275 s
  Change rate of swimming time: 1.5%
[1]; 0.5 mg/kg
  Swimming time: 660 ± 268 s
  Change rate of swimming time: 1.9%
[1]; 1 mg/kg
  Swimming time: 658 ± 296 s
  Change rate of swimming time: 2.2%
[1]; 5 mg/kg
  Swimming time: 640 ± 286 s
  Change rate of swimming time: 1.5%
[1]; Table 2, 0.01 mg/kg
  Swimming time change rate: 1.5%
[1]; Table 2, 0.5 mg/kg
  Swimming time change rate: 1.9%
[1]; Table 2, 1 mg/kg
  Swimming time change rate: 2.2%
[1]; Table 2, 3 mg/kg
  Swimming time change rate: 1.6%
[1]; Table 2, 6.25 mg/kg
  Swimming time change rate: 1.4%
[1]; Table 2, 12.5 mg/kg
  Swimming time change rate: 3.4%
[1]; Table 2, 25 mg/kg
  Swimming time change rate: 6.9%
[1]; Table 2, 50 mg/kg
  Swimming time change rate: 12.4* %
[1]; Table 2, single use, compared with normal control group (P>0.05)
  Effect on mice swimming time (in words): no significant effect on mice swimming time
[2]; 0.01 mg/kg
  Animal weight start/finish (finish): 21.6/39.2 g
[2]; 0.5 mg/kg
  Animal weight start/finish (finish): 21.8/38.8 g
[2]; 1 mg/kg
  Animal weight start/finish (finish): 21.7/38.7 g
[2]; 5 mg/kg
  Animal weight start/finish (finish): 21.8/38.9 g
